This series in a line: Solubility in water. Type of series: physicochemical. Here is the method: As used herein, the term “poorly water-soluble” or “poorly soluble” refers to having a solubility in water at 20° C. of less than 1%, i.e., a “sparingly soluble to practically insoluble, or insoluble drug” as described in Remington, The Science and Practice of Pharmacy, 21st Edition, p. 212, D. B. Troy, Ed., Lippincott Williams & Wilkins (2005).

The values below come from patent US20080280999A1, “Process for Making Pharmaceutical Compositions with a Transient Plasticizer” (NOVARTIS AG, priority 2005, published 2008).

Each structure is given as a SMILES string. Converted amounts (≈) assume the structure as drawn.

As a reminder, the solubility is how much of the substance goes into solution per volume. `CN(Cc1ccccc1)C(=O)[C@H](Cc1ccc2ccccc2c1)N(C)C(=O)[C@@H]1CCCN1c1nc(=O)c2ccccc2[nH]1` gave a solubility of 10 µg/mL (≈ 17.4 µM).

As to `CC[C@@H]1/C=C(\C)C[C@H](C)C[C@H](OC)[C@H]2O[C@@](O)(C(=O)C(=O)N3CCCC[C@H]3C(=O)O[C@H](/C(C)=C/[C@@H]3CC[C@H](Cl)[C@H](OC)C3)[C@H](C)[C@@H](O)CC1=O)[C@H](C)C[C@@H]2OC` [Pimecrolimus], the “solubility in water (in words)” value is “insoluble in water”.
